In patent publication US8648085B2, “1, 5-dihydro-pyrazolo (3, 4-D) pyrimidin-4-one derivatives and their use as PDE9A mudulators for the treatment of CNS disorders” (Boehringer Ingelheim International GmbH, priority 2007, dated 2014):

Key:
PDE1C = target: T1, PDE1C (Homo sapiens, UniProt Q14123); assay: PDE enzymatic activity assay (SPA), PDE1C, cAMP as substrate; type: biochemical; conditions: ratio IC50 PDE1C / IC50 PDE9A; for illustrative purposes
T1 construct: made in house; host or cells: SF9 insect cells (crude lysate used as enzyme source)
Protocol: (§1) The PDE enzymatic activity assays were run as SPA, in general according to the protocol of the manufacturer (Amersham Biosciences, product number: TRKQ 7100). As enzyme source, lysate (PBS with 1% Triton X-100 supplemented with protease inhibitors, cell debris removed by centrifugation at 13.000 rpm for 30 min) of SF 9 cell expressing the human PDE of interest was used. The total protein amount included in the assay varied upon infection and production efficacy of the SF9 cells and lay in the range of […].
(§2) In general, the assay conditions were as follows: • total assay volume: 40 μl • protein amount: 0.1-50 ng • substrate concentration (cGMP or cAMP): 20 nM; ˜1 mCi/l • incubation time: 60 min at room temperature • final DMSO concentration: 1%
(§3) The assays were run in 384-well format. The test reagents as well as the enzyme and the substrate were diluted in assay buffer. The assay buffer contained 50 mM Tris, 8.3 mM MgCl2, 1.7 mM EGTA, 0.1% BSA, 0.05% Tween 20; the pH of assay buffer was adjusted to 7.5. In case activity of PDE1C was analysed, 50 nM Calmodulin and 3 mM CaCl2 were included in the assay buffer. In case PDE9 activity was analyzed, the reaction was stopped by applying a PDE9 specific inhibitor (e.g. compounds according to WO2004/099210). PDE1C was analysed with cAMP as substrate, and PDE9 was analyzed with cGMP as substrate.
(§4) IC50 can be calculated in a conventional way, eventually with the help of GraphPadPrism or other suited software setting the positive control as 100 and the negative control as 0. For calculation of IC50 usually 8 dilutions of the test compound ([…]) are to be selected and tested following the aforementioned protocol.

PDE9A = PDE9A (Homo sapiens, UniProt O76083); assay: PDE enzymatic activity assay (SPA), PDE9A; type: biochemical; set-up: made in house; host or cells: SF9 insect cells (crude lysate used as enzyme source); conditions: cGMP substrate, for illustrative purposes; for inhibition at 10 µM: 10 micromolar; for IC50: given as ranges
Chain of PDE9A (O76083 whole entry): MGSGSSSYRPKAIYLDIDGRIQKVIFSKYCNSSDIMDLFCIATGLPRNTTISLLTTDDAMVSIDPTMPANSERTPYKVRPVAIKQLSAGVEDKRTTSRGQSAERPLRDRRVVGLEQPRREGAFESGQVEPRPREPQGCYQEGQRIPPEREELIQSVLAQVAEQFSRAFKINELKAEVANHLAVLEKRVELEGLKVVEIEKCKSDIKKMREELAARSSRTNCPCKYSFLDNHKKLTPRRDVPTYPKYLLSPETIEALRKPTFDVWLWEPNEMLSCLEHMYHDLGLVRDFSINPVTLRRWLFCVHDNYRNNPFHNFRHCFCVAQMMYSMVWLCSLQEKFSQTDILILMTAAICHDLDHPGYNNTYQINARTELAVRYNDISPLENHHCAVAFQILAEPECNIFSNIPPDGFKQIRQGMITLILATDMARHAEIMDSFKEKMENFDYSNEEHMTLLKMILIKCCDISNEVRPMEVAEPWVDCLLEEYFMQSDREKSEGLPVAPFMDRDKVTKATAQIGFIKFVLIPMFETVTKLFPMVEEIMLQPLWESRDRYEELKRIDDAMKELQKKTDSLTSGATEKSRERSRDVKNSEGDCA
Protocol: as §1, §2, §3
Calculation of % Inhibition:
The activity of the positive control (minus the negative control=background) is set to 100% and activity in the presence of test compound is expressed relative to these 100%.
Within this setting, an inhibition above 100% might be possible due to the nature of the variation of the positive control within the assay, however, in this case the reported % inhibition had been adjusted to 100%.
as §4

Question: What does the source list for `O=c1[nH]c(Cc2ccccc2OC(F)(F)F)nc2c1cnn2-c1cnccc1C(F)(F)F` [Example 32, 6-(2-Trifluoromethoxy-benzyl)-1-(4-trifluoromethyl-pyridin-3-yl)-1,5-dihydro-pyrazolo[3,4-d]pyrimidin-4-one]?
Answer: Selectivity = IC50 PDE 1C/IC50 PDE9A (both nanomolar) (PDE1C): 11; inhibition at 10 µM (PDE9A): 91%; IC50 (PDE9A): 0.01 to 0.5 µM

Question: Which “Selectivity = IC50 PDE 1C/IC50 PDE9A (both nanomolar)” value (from here on “Selectivity = IC50 PDE 1C/IC50 PDE9A”) (PDE1C) does the source give for `O=c1[nH]c(Cc2ccccc2OC(F)(F)F)nc2c1cnn2-c1ccc(F)cc1Br` [Example 9, 1-(2-Bromo-4-fluoro-phenyl)-6-(2-trifluoromethoxy-benzyl)-1,5-dihydro-pyrazolo[3,4-d]pyrimidin-4-one] here?
Answer: 6

Question: And the inhibition at 10 µM (PDE9A)?
Answer: 90%

Question: And the IC50 (PDE9A)?
Answer: 0.01 to 0.5 µM

Question: What does the source list for `O=c1[nH]c(Cc2ccccc2OC(F)(F)F)nc2c1cnn2-c1cc(Cl)ccc1Cl` [Example 16, 1-(2,5-Dichloro-phenyl)-6-(2-trifluoromethoxy-benzyl)-1,5-dihydro-pyrazolo[3,4-d]pyrimidin-4-one]?
Answer: Selectivity = IC50 PDE 1C/IC50 PDE9A (both nanomolar) (PDE1C): 71; inhibition at 10 µM (PDE9A): 93%; IC50 (PDE9A): 0.01 to 0.5 µM

Question: Which results are given for `O=c1[nH]c(Cc2ccccc2OC(F)(F)F)nc2c1cnn2-c1ccc(F)cc1` [Example 11, 1-(4-Fluoro-phenyl)-6-(2-trifluoromethoxy-benzyl)-1,5-dihydro-pyrazolo[3,4-d]pyrimidin-4-one]?
Answer: Selectivity = IC50 PDE 1C/IC50 PDE9A (both nanomolar) (PDE1C): 21; inhibition at 10 µM (PDE9A): 47%; IC50 (PDE9A): > 0.5 µM

Question: `O=c1[nH]c(Cc2ccccc2OC(F)(F)F)nc2c1cnn2-c1ncc(F)cc1F` [Example 39, 6-(2-Trifluoromethoxy-benzyl)-1-(3,5-difluoro-pyridin-2-yl)-1,5-dihydro-pyrazolo[3,4-d]pyrimidin-4-one] was tested. Which “Selectivity = IC50 PDE 1C/IC50 PDE9A” value (PDE1C) did it give?
Answer: 4

Question: And the inhibition at 10 µM (PDE9A)?
Answer: 97%

Question: What about the IC50 (PDE9A) of the same molecule?
Answer: 0.01 to 0.5 µM

Question: What does the source list for `Cc1cccc(-n2ncc3c(=O)[nH]c(Cc4ccccc4OC(F)(F)F)nc32)c1C` [Example 19, 1-(2,3-Dimethyl-phenyl)-6-(2-trifluoromethoxy-benzyl)-1,5-dihydro-pyrazolo[3,4-d] pyrimidin-4-one]?
Answer: Selectivity = IC50 PDE 1C/IC50 PDE9A (both nanomolar) (PDE1C): 5; inhibition at 10 µM (PDE9A): 74%; IC50 (PDE9A): 0.01 to 0.5 µM

Question: How did the “Selectivity = IC50 PDE 1C/IC50 PDE9A” value (PDE1C) turn out when `Cc1ccc(F)cc1-n1ncc2c(=O)[nH]c(Cc3ccccc3OC(F)(F)F)nc21` [Example 14, 1-(5-Fluoro-2-methyl-phenyl)-6-(2-trifluoromethoxy-benzyl)-1,5-dihydro-pyrazolo[3,4-d]pyrimidin-4-one] was run?
Answer: 14

Question: What about the inhibition at 10 µM (PDE9A) of the same molecule?
Answer: 95%

Question: What about the IC50 (PDE9A) of the same molecule?
Answer: 0.01 to 0.5 µM

Question: Which results are given for `Cc1cc(-n2ncc3c(=O)[nH]c(Cc4ccccc4OC(F)(F)F)nc32)c(Cl)cc1F` [Example 23, 1-(2-Chloro-4-fluoro-5-methyl-phenyl)-6-(2-trifluoromethoxy-benzyl)-1,5-dihydro-pyrazolo[3,4-d]pyrimidin-4-one]?
Answer: Selectivity = IC50 PDE 1C/IC50 PDE9A (both nanomolar) (PDE1C): 46; inhibition at 10 µM (PDE9A): 85%; IC50 (PDE9A): > 0.5 µM

Question: How did the “Selectivity = IC50 PDE 1C/IC50 PDE9A” value (PDE1C) turn out when `O=C(O)c1ccc(Cl)c(-n2ncc3c(=O)[nH]c(Cc4ccccc4OC(F)(F)F)nc32)c1` [Example 30-2, 1-(2-Chloro-5-carbox-phenyl)-6-(2-trifluoromethoxy-benzyl)-1,5-dihydro-pyrazolo[3,4-d]pyrimidin-4-one] was run?
Answer: 55

Question: And the inhibition at 10 µM (PDE9A)?
Answer: 100%

Question: And the IC50 (PDE9A)?
Answer: 0.01 to 0.5 µM

Question: With `Cc1ccncc1-n1ncc2c(=O)[nH]c(Cc3ccccc3OC(F)(F)F)nc21` [Example 1, 1-(4-Methyl-pyridin-3-yl)-6-(2-tri-fluoromethoxy-benzyl)-1,5-dihydro-pyrazolo[3,4-d]pyrimidin-4-one] as the molecule, how does the “Selectivity = IC50 PDE 1C/IC50 PDE9A” value (PDE1C) read?
Answer: 39

Question: And the inhibition at 10 µM (PDE9A)?
Answer: 99%

Question: What about the IC50 (PDE9A) of the same molecule?
Answer: 0.01 to 0.5 µM

Question: Which “Selectivity = IC50 PDE 1C/IC50 PDE9A” value (PDE1C) does the source give for `O=c1[nH]c(Cc2ccccc2OC(F)(F)F)nc2c1cnn2-c1cccc(F)c1F` [Example 30-4, 1-(2,3-Difluoro-phenyl)-6-(2-trifluoromethoxy-benzyl)-1,5-dihydro-pyrazolo[3,4-d]pyrimidin-4-one] here?
Answer: 3

Question: What about the inhibition at 10 µM (PDE9A) of the same molecule?
Answer: 99%

Question: And the IC50 (PDE9A)?
Answer: 0.01 to 0.5 µM

Question: With `O=c1[nH]c(Cc2ccccc2OC(F)(F)F)nc2c1cnn2-c1cc(F)ccc1Br` [Example 7, 1-(2-Bromo-5-fluoro-phenyl)-6-(2-trifluoromethoxy-benzyl)-1,5-dihydro-pyrazolo[3,4-d]pyrimidin-4-one] as the molecule, how does the “Selectivity = IC50 PDE 1C/IC50 PDE9A” value (PDE1C) read?
Answer: 9

Question: And the inhibition at 10 µM (PDE9A)?
Answer: 91%

Question: And the IC50 (PDE9A)?
Answer: 0.01 to 0.5 µM

Question: What does the source list for `O=c1[nH]c(Cc2ccccc2OC(F)(F)F)nc2c1cnn2-c1cc(Cl)ccc1Br` [Example 8, 1-(2-Bromo-5-chloro-phenyl)-6-(2-trifluoromethoxy-benzyl)-1,5-dihydro-pyrazolo[3,4-d]pyrimidin-4-one]?
Answer: Selectivity = IC50 PDE 1C/IC50 PDE9A (both nanomolar) (PDE1C): 21; inhibition at 10 µM (PDE9A): 93%; IC50 (PDE9A): 0.01 to 0.5 µM

Question: Which results are given for `Cc1ccccc1-n1ncc2c(=O)[nH]c(Cc3ccccc3OC(F)(F)F)nc21` [Example 2, 1-o-Tolyl-6-(2-trifluoromethoxy-benzyl)-1,5-dihydro-pyrazolo[3,4-d] pyrimidin-4-one]?
Answer: Selectivity = IC50 PDE 1C/IC50 PDE9A (both nanomolar) (PDE1C): 14; inhibition at 10 µM (PDE9A): 98%; IC50 (PDE9A): 0.01 to 0.5 µM

Question: With `O=c1[nH]c(Cc2ccccc2OC(F)(F)F)nc2c1cnn2-c1cccnc1` [Example 33, 6-(2-Trifluoromethoxy-benzyl)-1-(pyridin-3-yl)-1,5-dihydro-pyrazolo[3,4-d]pyrimidin-4-one] as the molecule, how does the “Selectivity = IC50 PDE 1C/IC50 PDE9A” value (PDE1C) read?
Answer: 4

Question: And the inhibition at 10 µM (PDE9A)?
Answer: 89%

Question: What about the IC50 (PDE9A) of the same molecule?
Answer: 0.01 to 0.5 µM

Question: How did the “Selectivity = IC50 PDE 1C/IC50 PDE9A” value (PDE1C) turn out when `COc1ccc(Cl)cc1-n1ncc2c(=O)[nH]c(Cc3ccccc3OC(F)(F)F)nc21` [Example 4, 1-(5-Chloro-2-methoxy-phenyl)-6-(2-trifluoromethoxy-benzyl)-1,5-dihydro-pyrazolo[3,4-d]pyrimidin-4-one] was run?
Answer: 88

Question: What about the inhibition at 10 µM (PDE9A) of the same molecule?
Answer: 102%

Question: What about the IC50 (PDE9A) of the same molecule?
Answer: 0.01 to 0.5 µM

Question: `O=C(c1cccc(-n2ncc3c(=O)[nH]c(Cc4ccccc4OC(F)(F)F)nc32)c1)N1CCOCC1` [Example 38, 1-[3-(N-morpholino-carbonyl)-phenyl]-6-(2-trifluoromethoxy-benzyl)-1,5-dihydro-pyrazolo[3,4-d]pyrimidin-4-one] was tested. Which “Selectivity = IC50 PDE 1C/IC50 PDE9A” value (PDE1C) did it give?
Answer: 9

Question: And the inhibition at 10 µM (PDE9A)?
Answer: 92%

Question: What about the IC50 (PDE9A) of the same molecule?
Answer: > 0.5 µM

Question: What does the source list for `Cc1cc(F)c(F)cc1-n1ncc2c(=O)[nH]c(Cc3ccccc3OC(F)(F)F)nc21` [Example 21, 1-(4,5-Difluoro-2-methyl-phenyl)-6-(2-trifluoromethoxy-benzyl)-1,5-dihydro-pyrazolo[3,4-d]pyrimidin-4-one]?
Answer: Selectivity = IC50 PDE 1C/IC50 PDE9A (both nanomolar) (PDE1C): 93; inhibition at 10 µM (PDE9A): 91%; IC50 (PDE9A): 0.01 to 0.5 µM

Question: `O=c1[nH]c(Cc2ccccc2OC(F)(F)F)nc2c1cnn2-c1ccc(F)cc1F` [Example 12, 1-(2,4-Difluoro-phenyl)-6-(2-trifluoromethoxy-benzyl)-1,5-dihydro-pyrazolo[3,4-d]pyrimidin-4-one] was tested. Which “Selectivity = IC50 PDE 1C/IC50 PDE9A” value (PDE1C) did it give?
Answer: 8

Question: What about the inhibition at 10 µM (PDE9A) of the same molecule?
Answer: 102%

Question: What about the IC50 (PDE9A) of the same molecule?
Answer: 0.01 to 0.5 µM

Question: `Cc1c(F)cccc1-n1ncc2c(=O)[nH]c(Cc3ccccc3OC(F)(F)F)nc21` [Example 28, 1-(3-Fluoro-2-methyl-phenyl)-6-(2-trifluoromethoxy-benzyl)-1,5-dihydro-pyrazolo[3,4-d]pyrimidin-4-one] was tested. Which “Selectivity = IC50 PDE 1C/IC50 PDE9A” value (PDE1C) did it give?
Answer: 8

Question: What about the inhibition at 10 µM (PDE9A) of the same molecule?
Answer: 96%

Question: What about the IC50 (PDE9A) of the same molecule?
Answer: 0.01 to 0.5 µM

Question: What does the source list for `O=c1[nH]c(Cc2ccccc2OC(F)(F)F)nc2c1cnn2-c1cccc(Cl)c1Cl` [Example 29, 1-(2,3-Dichloro-phenyl)-6-(2-trifluoromethoxy-benzyl)-1,5-dihydro-pyrazolo[3,4-d]pyrimidin-4-one]?
Answer: Selectivity = IC50 PDE 1C/IC50 PDE9A (both nanomolar) (PDE1C): 9; inhibition at 10 µM (PDE9A): 89%; IC50 (PDE9A): 0.01 to 0.5 µM

Question: With `O=c1[nH]c(Cc2ccccc2OC(F)(F)F)nc2c1cnn2-c1cc(O)ccc1Cl` [Example 30-3, 1-(2-Chloro-5-hydroxy-phenyl)-6-(2-trifluoromethoxy-benzyl)-1,5-dihydro-pyrazolo[3,4-d]pyrimidin-4-one] as the molecule, how does the “Selectivity = IC50 PDE 1C/IC50 PDE9A” value (PDE1C) read?
Answer: 14

Question: What about the inhibition at 10 µM (PDE9A) of the same molecule?
Answer: 100%

Question: What about the IC50 (PDE9A) of the same molecule?
Answer: 0.01 to 0.5 µM

Question: What does the source list for `O=C(c1ccc(Cl)c(-n2ncc3c(=O)[nH]c(Cc4ccccc4OC(F)(F)F)nc32)c1)N1CCOCC1` [Example 37, 1-[2-Chloro-5-(N-morpholino-carbonyl)-phenyl]-6-(2-trifluoromethoxy-benzyl)-1,5-dihydro-pyrazolo[3,4-d]pyrimidin-4-one]?
Answer: Selectivity = IC50 PDE 1C/IC50 PDE9A (both nanomolar) (PDE1C): 27; inhibition at 10 µM (PDE9A): 99%; IC50 (PDE9A): 0.01 to 0.5 µM
